The text below walks through data of ChEMBL document CHEMBL1128575, “Nonpeptidic inhibitors of human leukocyte elastase. 5. Design, synthesis, and X-ray crystallography of a series of orally active 5-aminopyrimidin-6-one-containing trifluoromethyl ketones” (J Med Chem, 1995).

Broadly, the AUC is the area under the concentration-time curve, a measure of exposure. Read a low AUC as low exposure. As usually defined, the Cmax is the highest concentration seen after dosing. The Tmax is the time from dosing to the highest level. As usually defined, the half-life is how long it takes for the measured level to halve. One may read the inhibition in vivo as the drop in the measured response relative to a control, in per cent. Low readings indicate a response near the control, high ones a response far below the control.

Series [1] can be described thus: Area under the concentration vs time curve in dog at 10 mg/kg oral dose. The following applies: in vivo. It is filed as ADME, organism-based, Canis lupus familiaris. Set-up: dose 10 mg/kg, route oral.
A short description of series [2]: Maximum concentration in plasma recorded in the period 0-6 hr post dose in rat at 10 mg/kg oral dose. It is filed as ADME, organism-based. More on the design: dose 10 mg/kg, route oral.
A short description of series [3]: Tmax is the time of maximum concentration in hamster at 10 mg/kg oral dose. The format is ADME, organism-based. More on the design: dose 10 mg/kg, route oral. The following applies: cricetinae, in vivo.
The nature of series [4]: Maximum concentration in plasma recorded in the period 0-6 hr post dose in hamster at 10 mg/kg oral dose. The following applies: cricetinae. Set-up: dose 10 mg/kg, route oral. It is filed as ADME, organism-based.
Series [5] is described as follows: Half life in plasma in dog at 10 mg/kg oral dose. The format is ADME, organism-based, Canis lupus familiaris. More on the design: dose 10 mg/kg, route oral.
Series [6] relates to Cricetinae gen. sp. Description: Oral dose of 2.5 mg/Kg (90 min prior to instillation of elastase) was tested for the inhibition of elastase-induced lung hemorrhage in hamster. It is filed as functional, Cricetulus griseus.
The nature of series [7]: Half life in plasma in rat at 10 mg/kg oral dose. It is filed as ADME, organism-based. Set-up: dose 10 mg/kg, route oral.
In series [8] the test system is Cricetinae gen. sp. Description: Oral dose of 2.5 mg/Kg (30 min prior to instillation of elastase) was tested for the inhibition of elastase-induced lung hemorrhage in hamster. The format is functional, Cricetulus griseus.
Series [9] in a line: Tmax is the time of maximum concentration in dog at 10 mg/kg oral dose. The format is ADME, organism-based, Canis lupus familiaris. Set-up: dose 10 mg/kg, route oral. The following applies: in vivo.
Series [10] can be described thus: Tmax is the time of maximum concentration in rat at 10 mg/kg oral dose. The format is ADME, organism-based. Set-up: dose 10 mg/kg, route oral. Particulars: in vivo.
Series [11] in a line: Half life in plasma in hamster at 10 mg/kg oral dose. The format is ADME, organism-based. More on the design: dose 10 mg/kg, route oral. Particulars: cricetinae.
Series [12] is described as follows: Area under the concentration vs time curve in hamster at 10 mg/kg oral dose. The format is ADME, organism-based. More on the design: dose 10 mg/kg, route oral. The following applies: cricetinae, in vivo.
Series [13] relates to Cricetinae gen. sp. Description: Oral dose of 20 mg/Kg (30 min prior to instillation of elastase) was tested for the inhibition of elastase-induced lung hemorrhage in hamster. The format is functional, Cricetulus griseus.
Series [14] is described as follows: Maximum concentration in plasma recorded 0-6 hr post dose in dog at 10 mg/kg oral dose. The format is ADME, organism-based, Canis lupus familiaris. More on the design: dose 10 mg/kg, route oral.
The nature of series [15]: Area under the concentration vs time curve in rat at 10 mg/kg oral dose. More on the design: dose 10 mg/kg, route oral. It is filed as ADME, organism-based. The following applies: in vivo.

On to `CC(C)C(NC(=O)Cn1c(-c2ccc(F)cc2)ncc(N)c1=O)C(=O)C(F)(F)F` (stereo not given), for which the results for the AUC in series [1], in series [12] and in [15] were 5950 ng·h/mL, 1190 ng·h/mL and 5170 ng·h/mL, respectively. Further, the Cmax in series [2] was 1900 ng/mL; in [4], 750 ng/mL; in series [14], 3230 ng/mL. The values for the Tmax in [3], in series [9] and in [10] were 0.25 h, 1 h and 1 h, respectively. Besides, the results for the half-life in [5], in series [7] and in series [11] were 0.967 h, 1.6 h and 1.35 h, respectively. Also, the inhibition in vivo at 2.5 mg/kg was found to be 49% in the series on Cricetinae gen. sp. [6] and 43% in the series with Cricetinae gen. sp. [8]. The compound also showed an inhibition in vivo at 20 mg/kg in the series with Cricetinae gen. sp. [13] of 66%.
